One may read the MIC as the lowest concentration that inhibits growth of the organism. A word on the CC50: it is the concentration that lowers cell viability or growth by half. Low readings indicate harm at low concentration, high ones better tolerance by the cells.

Values after ≈ are worked out from the molar mass of the structure shown. Active and inactive are the calls of the source. The calls are words filed in the database; no cut-off is given here. Where only a bound is given, the exact number is not on record here.

Series [1] concerns Staphylococcus aureus. Description: Antibacterial activity against methicillin-resistant Staphylococcus aureus. It is filed as functional, organism-based.
The test system of series [2] is Aspergillus terreus. Description: Antifungal activity against Aspergillus terreus ATCC MYA-3633 measured after 48 hrs by CLSI M38-A2 protocol based method. To be noted: ATCC MYA-3633, 48 h. It is filed as functional.
Series [3] deals with Candida parapsilosis. Description: Antifungal activity against Candida parapsilosis ATCC 22019 measured after 48 hrs by CLSI M27-A3 protocol based method. Format: functional. To be noted: Lodderomyces parapsilosis, ATCC 22019, 48 h.
Series [4] concerns Listeria monocytogenes. Description: Antibacterial activity against Listeria monocytogenes. It is filed as functional, organism-based.
The subject of series [5] is Candida albicans. Description: Antifungal activity against fluconazole/ITC-resistant Candida albicans ATCC 90819 measured after 48 hrs by CLSI M27-A3 protocol based method. To be noted: ATCC 90819, 48 h. Format: functional.
Series [6] deals with Candida albicans. As to the kind of experiment: Antifungal activity against fluconazole/ITC-susceptible Candida albicans ATCC MYA-2310 measured after 48 hrs by CLSI M27-A3 protocol based method. Format: functional. To be noted: ATCC MYA-2310, 48 h.
In series [7] the test system is Pichia kudriavzevii. Description: Antifungal activity against Candida krusei ATCC 6258 measured after 48 hrs by CLSI M27-A3 protocol based method. Format: functional. To be noted: ATCC 6258, 48 h.
Series [8] deals with Aspergillus nidulans. As to the kind of experiment: Antifungal activity against Aspergillus nidulans ATCC 38163 measured after 48 hrs by CLSI M38-A2 protocol based method. Format: functional. To be noted: ATCC 38163, 48 h.
Series [9] has as its system Candida albicans. As to the kind of experiment: Antifungal activity against fluconazole/ITC-resistant Candida albicans ATCC 10231 measured after 48 hrs by CLSI M27-A3 protocol based method. It is filed as functional. To be noted: ATCC 10231, 48 h.
Series [10] relates to Candida albicans. As to the kind of experiment: Antifungal activity against fluconazole/ITC-resistant Candida albicans ATCC 64124 measured after 48 hrs by CLSI M27-A3 protocol based method. It is filed as functional. To be noted: ATCC 64124, 48 h.
In series [11] the test system is Candida albicans. Description: Antifungal activity against fluconazole/ITC-resistant Candida albicans ATCC MYA-1003 measured after 48 hrs by CLSI M27-A3 protocol based method. Format: functional. To be noted: ATCC MYA-1003, 48 h.
The test system of series [12] is Enterococcus. Description: Antibacterial activity against vancomycin-resistant Enterococcus. Format: functional, organism-based.
In series [13] the test system is Aspergillus flavus. Description: Antifungal activity against Aspergillus flavus ATCC MYA-3631 measured after 48 hrs by CLSI M38-A2 protocol based method. Format: functional. To be noted: ATCC MYA-3631, 48 h.
For series [14], the system named is Candida albicans. As to the kind of experiment: Antifungal activity against fluconazole/ITC-susceptible Candida albicans ATCC MYA-2876 measured after 48 hrs by CLSI M27-A3 protocol based method. To be noted: ATCC MYA-2876, 48 h. It is filed as functional.
Series [15] relates to Nakaseomyces glabratus. Description: Antifungal activity against Candida glabrata ATCC 2001 measured after 48 hrs by CLSI M27-A3 protocol based method. It is filed as functional. To be noted: CBS 138, 48 h.
Series [16] deals with Candida albicans. As to the kind of experiment: Antifungal activity against fluconazole/ITC-resistant Candida albicans ATCC MYA-1237 measured after 48 hrs by CLSI M27-A3 protocol based method. To be noted: ATCC MYA-1237, 48 h. It is filed as functional.
The nature of series [17]: Hemolytic activity in mouse RBC at 3.9 ug/ml after 1 hr relative to control. Format: ADME, cell-based, Erythrocyte. To be noted: red blood cells (erythrocytes), read-out: Activity.
A short description of series [18]: Hemolytic activity in mouse RBC at 62.5 ug/ml after 1 hr relative to control. It is filed as ADME, cell-based, Erythrocyte. To be noted: red blood cells (erythrocytes), read-out: Activity.
The nature of series [19]: Hemolytic activity in mouse RBC at […] ug/ml after 1 hr relative to control. It is filed as ADME, cell-based, Erythrocyte. To be noted: red blood cells (erythrocytes), read-out: Activity.
Series [20] can be described thus: Hemolytic activity in mouse RBC at […] after 1 hr relative to control. Further: tested at 0.48 µg/mL. It is filed as ADME, cell-based, Erythrocyte. To be noted: red blood cells (erythrocytes), read-out: Activity.
Series [21] deals with A549. As to the kind of experiment: Cytotoxicity against human A549 cells after 24 hrs by resazurin based assay. Format: cell-based. To be noted: a549, 24 h. On the technique in general: Alamar Blue is a resazurin reagent that responds to reducing activity.
The nature of series [22]: Hemolytic activity in mouse RBC at 31.3 ug/ml after 1 hr relative to control. It is filed as ADME, cell-based, Erythrocyte. To be noted: red blood cells (erythrocytes), read-out: Activity.
For series [23], the system named is BEAS-2B. Description: Cytotoxicity against human BEAS2B cells after 24 hrs by resazurin based assay. Format: cell-based.
Series [24] in a line: Hemolytic activity in mouse RBC at 7.8 ug/ml after 1 hr relative to control. Format: ADME, cell-based, Erythrocyte. To be noted: red blood cells (erythrocytes), read-out: Activity.
The nature of series [25]: Hemolytic activity in mouse RBC at 1.95 ug/ml after 1 hr relative to control. Format: ADME, cell-based, Erythrocyte. To be noted: red blood cells (erythrocytes), read-out: Activity.

With `CC(C)(C)N/N=C/c1ccc(-c2ccc(/C=N/NC(C)(C)C)cc2)cc1`, the outcome in series [1], in [4] and in series [12] was inactive. The MIC in series [2] was more than 31.3 µg/mL; in [3], more than 31.3 µg/mL; in series [5], more than 31.3 µg/mL; in series [6], 31.3 µg/mL (≈ 89.3 µM); in [7], 31.3 µg/mL (≈ 89.3 µM); in series [8] it was 31.3 µg/mL (≈ 89.3 µM). Moreover, the minimum inhibitory concentration (MIC) is 31.3 µg/mL (≈ 89.3 µM) in series [9]; 31.3 µg/mL (≈ 89.3 µM) in [10]; more than 31.3 µg/mL in [11]; more than 31.3 µg/mL in [13]; more than 31.3 µg/mL in series [14]; 15.6 µg/mL (≈ 44.5 µM) in series [15]. This compound also had an MIC in series [16] of 31.3 µg/mL (≈ 89.3 µM).

Turning to `Fc1ccccc1N/N=C/c1ccc(-c2ccc(/C=N/Nc3ccccc3F)cc2)cc1`, the result in series [1], in series [4] and in [12] was inactive. The MIC in series [2] was more than 31.3 µg/mL; in [3] it was more than 31.3 µg/mL; in [5], 31.3 µg/mL (≈ 73.4 µM); in [6] it was more than 31.3 µg/mL; in series [7], 3.9 µg/mL (≈ 9.14 µM); in [8], 31.3 µg/mL (≈ 73.4 µM). The minimal inhibitory concentration (MIC) is 3.9 µg/mL (≈ 9.14 µM) in [9]; more than 31.3 µg/mL in series [10]; 15.6 µg/mL (≈ 36.6 µM) in [11]; more than 31.3 µg/mL in series [13]; 15.6 µg/mL (≈ 36.6 µM) in series [14]; more than 31.3 µg/mL in series [15]. In series [16], this compound returned an MIC of more than 31.3 µg/mL.

For the compound `Clc1ccc(N/N=C/c2ccc(-c3cccc(/C=N/Nc4ccc(Cl)cc4)c3)cc2)cc1`, the outcome in series [1], in series [4] and in series [12] was inactive. The MIC in series [2] was more than 31.3 µg/mL; in [3] it was 3.9 µg/mL (≈ 8.49 µM); in series [5], 15.6 µg/mL (≈ 34 µM); in series [6], 31.3 µg/mL (≈ 68.1 µM); in series [7], 31.3 µg/mL (≈ 68.1 µM); in series [8], more than 31.3 µg/mL. Moreover, the MIC was 7.8 µg/mL (≈ 17 µM) in [9]; 7.8 µg/mL (≈ 17 µM) in series [10]; 3.9 µg/mL (≈ 8.49 µM) in series [11]; more than 31.3 µg/mL in [13]; 15.6 µg/mL (≈ 34 µM) in series [14]; 15.6 µg/mL (≈ 34 µM) in series [15]. In [16], 15.6 µg/mL (≈ 34 µM) was the least that counted as inhibitory (MIC).

On to `COc1ccccc1N/N=C(\C)c1ccc(-c2ccc(/C(C)=N/Nc3ccccc3OC)cc2)cc1`, for which the result in [1], in series [4] and in series [12] was inactive. Further, the MIC is more than 31.3 µg/mL in series [2]; 31.3 µg/mL (≈ 65.4 µM) in series [3]; more than 31.3 µg/mL in [5]; more than 31.3 µg/mL in series [6]; 31.3 µg/mL (≈ 65.4 µM) in [7]; more than 31.3 µg/mL in series [8]. Besides, the minimal inhibitory concentration (MIC) in series [9] was 15.6 µg/mL (≈ 32.6 µM); in [10] it was more than 31.3 µg/mL; in [11], 31.3 µg/mL (≈ 65.4 µM); in series [13], more than 31.3 µg/mL; in series [14] it was more than 31.3 µg/mL; in series [15], more than 31.3 µg/mL. In addition, in [16], the MIC was more than 31.3 µg/mL.

Turning to `Clc1ccc(N/N=C/c2ccc(-c3ccc(/C=N/Nc4ccc(Cl)cc4)cc3)cc2)cc1`, the outcome in series [1], in series [4] and in series [12] was inactive. Besides, the MIC in series [2] is 31.3 µg/mL (≈ 68.1 µM); in series [3] it was 31.3 µg/mL (≈ 68.1 µM); in [5], more than 31.3 µg/mL; in [6], more than 31.3 µg/mL; in series [7], 31.3 µg/mL (≈ 68.1 µM); in series [8], more than 31.3 µg/mL. Also, the MIC in series [9], in series [10], in series [11], in [13], in series [14] and in [15] was more than 31.3 µg/mL in each case. In series [16], this compound came in with an MIC of more than 31.3 µg/mL.

`Brc1ccc(N/N=C/c2ccc(-c3cccc(/C=N/Nc4ccc(Br)cc4)c3)cc2)cc1`: the result in [1], in series [4] and in series [12] was inactive. For the same compound, the MIC in series [2], in [3], in series [5], in [6], in [7] and in [8] was more than 31.3 µg/mL each time. Also, the MIC was 31.3 µg/mL (≈ 57.1 µM) in [9]; 31.3 µg/mL (≈ 57.1 µM) in [10]; 31.3 µg/mL (≈ 57.1 µM) in [11]; 31.3 µg/mL (≈ 57.1 µM) in series [13]; 31.3 µg/mL (≈ 57.1 µM) in series [14]; 7.8 µg/mL (≈ 14.2 µM) in [15]. The compound also yielded a minimal inhibitory concentration (MIC) in series [16] of 7.8 µg/mL (≈ 14.2 µM).

As to `N=C(N)N/N=C/c1ccc(-c2cccc(/C=N/NC(=N)N)c2)cc1`, the hemolysis at 1 h, 3.9 ug/ml in series [17] is 1.2%. Also, the minimal inhibitory concentration (MIC) in series [2] was 7.8 µg/mL (≈ 24.2 µM); in series [3] it was 1.95 µg/mL (≈ 6.05 µM); in series [5] it was more than 31.3 µg/mL; in [6], 3.9 µg/mL (≈ 12.1 µM); in series [7], 1.95 µg/mL (≈ 6.05 µM); in series [8], 7.8 µg/mL (≈ 24.2 µM). Further, the MIC in [9] is 1.95 to 3.9 µg/mL (≈ 6.05 to 12.1 µM); in series [10], 3.9 µg/mL (≈ 12.1 µM); in series [11], more than 31.3 µg/mL; in series [13], more than 31.3 µg/mL; in [14], 3.9 µg/mL (≈ 12.1 µM); in series [15], 3.9 µg/mL (≈ 12.1 µM). Moreover, the MIC in series [16] amounted to 7.8 µg/mL (≈ 24.2 µM). The hemolysis at 1 h, 62.5 ug/ml in series [18] is 13.1%. For the same compound, the hemolysis at 1 h, 15.6 ug/ml in series [19] (at 15.6 µg/mL) was 3.8%. For the same compound, the hemolysis at 1 h, 0.975 ug/ml in series [19] stood at 0%. Moreover, the hemolysis at 1 h, […] in series [20] was 0%. Further, the cytotoxic concentration (CC50) was 5.3 µg/mL (≈ 16.4 µM) in [21] and 2.9 µg/mL (≈ 9 µM) in series [23]. Moreover, the hemolysis at 1 h, 31.3 ug/ml in series [22] worked out at 3.8%. Further, in [24], the hemolysis at 1 h, 7.8 ug/ml turned out to be 2.3%. In addition, in series [25], the hemolysis at 1 h, 1.95 ug/ml was 1.1%.

Consider `CC(C)Oc1ccc(N/N=C/c2ccc(-c3ccc(/C=N/Nc4ccc(OC(C)C)cc4)cc3)cc2)cc1`, for which the result in [1], in [4] and in [12] was inactive. Besides, the minimal inhibitory concentration (MIC) in series [2], in [3], in [5], in [6], in series [7] and in [8] was more than 31.3 µg/mL in each case. Besides, the MIC in series [9], in series [10], in series [11], in series [13], in [14] and in series [15] was more than 31.3 µg/mL each time. The compound further registered a minimal inhibitory concentration (MIC) in series [16] of more than 31.3 µg/mL.
